Legend:
Type in all cases: in vivo
[1] = system: blackgrass (Alopecurus myosuroides); assay: Test A greenhouse herbicide test, postemergence
In short: (§1)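 Pot-grown plants (loam soil/sand blend), 2–10 cm tall at the one- to two-leaf stage, received postemergence sprays of formulated test chemical. After about 10 d in the greenhouse, injury was rated visually against untreated controls on a 0 (no effect) to 100 (complete control) scale.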

[2] = system: galium (catchweed bedstraw, Galium aparine); assay: Test A greenhouse herbicide test, postemergence
In short: as §1

[3] = system: barnyardgrass (Echinochloa crus-galli); assay: Test C greenhouse herbicide test, pre- and postemergence
In short: (§2)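 Seeds sown in loam–sand blend treated preemergence; plants in peat-based medium sprayed postemergence at 2–18 cm (1- to 4-leaf stage); chemicals in non-phytotoxic solvent with surfactant. Greenhouse 13–15 d, then visual rating versus controls on 0–100 scale (0 no effect, 100 complete control).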

[4] = system: crabgrass, large (large crabgrass, Digitaria sanguinalis); assay: as above
In short: as §2

[5] = system: foxtail, giant (giant foxtail, Setaria faberii); assay: as above
In short: as §2

[6] = system: galium (catchweed bedstraw, Galium aparine); assay: as above
In short: as §2

[7] = system: johnsongrass (Sorghum halepense); assay: as above
In short: as §2

[8] = system: lambsquarters (Chenopodium album); assay: as above
In short: as §2

[9] = system: morningglory (Ipomoea coccinea); assay: as above
In short: as §2

[10] = system: oilseed rape (Brassica napus); assay: as above
In short: as §2

[11] = system: ragweed (common ragweed, Ambrosia elatior); assay: as above
In short: as §2

[12] = system: ryegrass, Italian (Italian ryegrass, Lolium multiflorum); assay: as above
In short: as §2

[13] = system: wheat (winter wheat, Triticum aestivum); assay: as above
In short: as §2

[14] = 125 g ai/ha, visual rating after approx. 10 d, 0 to 100 scale (0 no effect, 100 complete control)
[15] = 500 g ai/ha, 0 to 100 scale, 0 is no effect, 100 is complete control
[16] = Postemergence, 31 g ai/ha, 0 to 100 scale (0 no effect, 100 complete control)
[17] = Postemergence, 125 g ai/ha, scale 0 to 100, 0 is no effect, 100 is complete control
[18] = Postemergence, 250 g ai/ha, scale 0 to 100, 0 no effect, 100 complete control, 13 to 15 d
[19] = Preemergence, 31 g ai/ha, scale 0 to 100, 0 is no effect, 100 is complete control
[20] = Preemergence, 62 g ai/ha, scale 0 to 100, 0 is no effect, 100 is complete control
[21] = Preemergence, 125 g ai/ha, scale 0 to 100, 0 is no effect, 100 is complete control
[22] = Preemergence, 250 g ai/ha, scale 0 to 100, 0 no effect, 100 complete control
[23] = postemergence, 62 g ai/ha, scale 0 to 100, 0 no effect, 100 complete control
[24] = 125 g ai/ha, 0 to 100 scale, 0 no effect, 100 complete control
[25] = 500 g ai/ha, visual rating after approx. 10 d, 0 to 100 scale (0 no effect, 100 complete control)

Cc1ccc2ccccc2c1-c1c(O)c(Br)nn(C)c1=O [Compound 23]
Plant response rating, Blackgrass [1, 14]: 70 | Blackgrass plant response rating [1, 15]: 80 | Plant response rating, Galium [2, 14]: 100 | Galium plant response rating [2, 15]: 100 | Barnyardgrass plant response rating [3, 16]: 40 | Plant response rating, Barnyardgrass [3, 17]: 75 | Plant response rating, Barnyardgrass [3, 18]: 85 | Plant response rating, Barnyardgrass [3, 19]: 10 | Plant response rating, Barnyardgrass [3, 20]: 85 | Plant response rating, Barnyardgrass [3, 21]: 85 | Barnyardgrass plant response rating [3, 22]: 85 | Barnyardgrass plant response rating [3, 23]: 60 | Crabgrass, Large plant response rating [4, 16]: 5 | Plant response rating, Crabgrass, Large [4, 17]: 35 | Plant response rating, Crabgrass, Large [4, 18]: 45 | Plant response rating, Crabgrass, Large [4, 19]: 5 | Plant response rating, Crabgrass, Large [4, 20]: 45 | Plant response rating, Crabgrass, Large [4, 21]: 75 | Crabgrass, Large plant response rating [4, 22]: 95 | Crabgrass, Large plant response rating [4, 23]: 20 | Foxtail, Giant plant response rating [5, 16]: 30 | Plant response rating, Foxtail, Giant [5, 17]: 85 | Plant response rating, Foxtail, Giant [5, 18]: 90 | Plant response rating, Foxtail, Giant [5, 19]: 30 | Plant response rating, Foxtail, Giant [5, 20]: 85 | Plant response rating, Foxtail, Giant [5, 21]: 85 | Foxtail, Giant plant response rating [5, 22]: 100 | Foxtail, Giant plant response rating [5, 23]: 65 | Galium plant response rating [6, 16]: 95 | Plant response rating, Galium [6, 17]: 100 | Plant response rating, Galium [6, 18]: 100 | Plant response rating, Galium [6, 19]: 98 | Plant response rating, Galium [6, 20]: 100 | Plant response rating, Galium [6, 21]: 100 | Galium plant response rating [6, 22]: 100 | Galium plant response rating [6, 23]: 100 | Johnsongrass plant response rating [7, 16]: 5 | Plant response rating, Johnsongrass [7, 17]: 10 | Plant response rating, Johnsongrass [7, 18]: 40 | Plant response rating, Johnsongrass [7, 19]: 5 | Plant response rating, Johnsongrass [7, 20]: 5 | Plant response rating, Johnsongrass [7, 21]: 35 | Johnsongrass plant response rating [7, 22]: 35 | Johnsongrass plant response rating [7, 23]: 5 | Lambsquarters plant response rating [8, 16]: 85 | Plant response rating, Lambsquarters [8, 17]: 95 | Plant response rating, Lambsquarters [8, 18]: 98 | Plant response rating, Lambsquarters [8, 19]: 85 | Plant response rating, Lambsquarters [8, 20]: 85 | Plant response rating, Lambsquarters [8, 21]: 95 | Lambsquarters plant response rating [8, 22]: 95 | Lambsquarters plant response rating [8, 23]: 95 | Morningglory plant response rating [9, 16]: 100 | Plant response rating, Morningglory [9, 17]: 100 | Plant response rating, Morningglory [9, 18]: 100 | Plant response rating, Morningglory [9, 19]: 85 | Plant response rating, Morningglory [9, 20]: 90 | Plant response rating, Morningglory [9, 21]: 95 | Morningglory plant response rating [9, 22]: 98 | Morningglory plant response rating [9, 23]: 100 | Oilseed Rape plant response rating [10, 16]: 5 | Plant response rating, Oilseed Rape [10, 17]: 45 | Plant response rating, Oilseed Rape [10, 18]: 10 | Plant response rating, Oilseed Rape [10, 19]: 50 | Plant response rating, Oilseed Rape [10, 20]: 90 | Plant response rating, Oilseed Rape [10, 21]: 90 | Oilseed Rape plant response rating [10, 22]: 100 | Oilseed Rape plant response rating [10, 23]: 15 | Ragweed plant response rating [11, 16]: 85 | Plant response rating, Ragweed [11, 17]: 95 | Plant response rating, Ragweed [11, 18]: 98 | Plant response rating, Ragweed [11, 19]: 85 | Plant response rating, Ragweed [11, 20]: 85 | Plant response rating, Ragweed [11, 21]: 95 | Ragweed plant response rating [11, 22]: 90 | Ragweed plant response rating [11, 23]: 90 | Ryegrass, Italian plant response rating [12, 16]: 85 | Plant response rating, Ryegrass, Italian [12, 17]: 95 | Plant response rating, Ryegrass, Italian [12, 18]: 95 | Plant response rating, Ryegrass, Italian [12, 19]: 85 | Plant response rating, Ryegrass, Italian [12, 20]: 90 | Plant response rating, Ryegrass, Italian [12, 21]: 95 | Ryegrass, Italian plant response rating [12, 22]: 95 | Ryegrass, Italian plant response rating [12, 23]: 90 | Wheat plant response rating [13, 16]: 10 | Plant response rating, Wheat [13, 17]: 35 | Plant response rating, Wheat [13, 18]: 30 | Plant response rating, Wheat [13, 20]: 85 | Plant response rating, Wheat [13, 21]: 90 | Wheat plant response rating [13, 22]: 90 | Wheat plant response rating [13, 23]: 30

CC(=O)Oc1c(Cl)nn(C)c(=O)c1-c1c(C)sc2ccc(C(F)(F)F)cc12 [Compound 152]
Plant response rating, Blackgrass [1, 24]: 20 | Plant response rating, Blackgrass [1, 25]: 30 | Plant response rating, Galium [2, 24]: 60 | Plant response rating, Galium [2, 25]: 70 | Plant response rating, Barnyardgrass [3, 19]: 5 | Plant response rating, Barnyardgrass [3, 20]: 5 | Plant response rating, Barnyardgrass [3, 21]: 30 | Barnyardgrass plant response rating [3, 22]: 70 | Plant response rating, Crabgrass, Large [4, 19]: 0 | Plant response rating, Crabgrass, Large [4, 20]: 0 | Plant response rating, Crabgrass, Large [4, 21]: 10 | Crabgrass, Large plant response rating [4, 22]: 10 | Plant response rating, Foxtail, Giant [5, 19]: 0 | Plant response rating, Foxtail, Giant [5, 20]: 35 | Plant response rating, Foxtail, Giant [5, 21]: 65 | Foxtail, Giant plant response rating [5, 22]: 90 | Plant response rating, Galium [6, 19]: 50 | Plant response rating, Galium [6, 20]: 45 | Plant response rating, Galium [6, 21]: 95 | Galium plant response rating [6, 22]: 100 | Plant response rating, Johnsongrass [7, 19]: 0 | Plant response rating, Johnsongrass [7, 20]: 0 | Plant response rating, Johnsongrass [7, 21]: 0 | Johnsongrass plant response rating [7, 22]: 5 | Plant response rating, Lambsquarters [8, 19]: 50 | Plant response rating, Lambsquarters [8, 20]: 75 | Plant response rating, Lambsquarters [8, 21]: 90 | Lambsquarters plant response rating [8, 22]: 98 | Plant response rating, Morningglory [9, 19]: 10 | Plant response rating, Morningglory [9, 20]: 40 | Plant response rating, Morningglory [9, 21]: 75 | Morningglory plant response rating [9, 22]: 90 | Plant response rating, Oilseed Rape [10, 19]: 50 | Plant response rating, Oilseed Rape [10, 20]: 85 | Plant response rating, Oilseed Rape [10, 21]: 95 | Oilseed Rape plant response rating [10, 22]: 100 | Plant response rating, Ragweed [11, 19]: 85 | Plant response rating, Ragweed [11, 20]: 40 | Plant response rating, Ragweed [11, 21]: 75 | Ragweed plant response rating [11, 22]: 90 | Plant response rating, Ryegrass, Italian [12, 19]: 10 | Plant response rating, Ryegrass, Italian [12, 20]: 50 | Plant response rating, Ryegrass, Italian [12, 21]: 90 | Ryegrass, Italian plant response rating [12, 22]: 90 | Plant response rating, Wheat [13, 19]: 0 | Plant response rating, Wheat [13, 20]: 10 | Plant response rating, Wheat [13, 21]: 25 | Wheat plant response rating [13, 22]: 85

— patent US10597388B2, “Pyridazinone herbicides” (FMC CORPORATION, priority 2014, dated 2020)
